The values below come from US10604554B2, “Double-acylated GLP-1 derivatives” (Novo Nordisk A/S, priority 2012, dated 2020).

Experiment [1] addresses T1, human GLP-1 receptor (Homo sapiens, UniProt P43220).
T1 construct: expressed in transfected cells; host or cells: BHK cells, clone FCW467-12A/KZ10-1 (parent line BHKTS13), further transfected with CRE luciferase
The experiment is described as follows: In vitro potency (CRE luciferase; whole cells). Type of experiment: cell-based. More on the design: EC50/pM (ratio 1% HSA/0% HSA): unit not given here. As to conditions: for pEC50: BHK cells. Summed up: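 Reporter: CRE-luciferase in BHK cells stably expressing human GLP-1R, 5×10^3 cells/well; compounds tested in buffer containing 0% or 1% HSA.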

For experiment [2], the target named is T1, human GLP-1 receptor. In words: GLP-1 receptor binding (SPA, displacement of 125I-GLP-1). The protocol: The purpose of this experiment is to investigate the binding to the GLP-1 receptor of the GLP-1 derivatives, and how the binding is potentially influenced by the presence of albumin. This is done in an in vitro experiment as described below.
In order to test the binding of the derivatives to albumin, the assay was performed with a low concentration of albumin (0.001%—corresponding to the residual amount thereof in the tracer), as well as with a high concentration of albumin (2.0% added). A shift in the binding affinity, IC50, is an indication that the peptide in question binds to albumin, and thereby a prediction of a potential protracted pharmacokinetic profile of the peptide in question in animal models.
Species (in vitro): Hamster
Biological End Point: Receptor Binding
A stable transfected cell line and a high expressing clone were selected for screening. The cells were grown at 5% CO2 in DMEM, 10% FCS, 1% Pen/Strep (Penicillin/Streptomycin) and 1.0 mg/ml of the selection marker G418.
The cells (approx. 80% confluence) were washed twice in PBS and harvested with Versene (aqueous solution of the tetrasodium salt of ethylenediaminetetraacetic acid), following which they were separated by centrifugation at 1000 rpm for 5 min. The cells/cell pellet must be kept on ice to the extent possible in the subsequent steps. The cell pellet was homogenised with Ultrathurrax for 20-30 seconds in a suitable amount of Buffer 1 (depending on the amount of cells, but e.g. 10 ml). The homogenate was centrifuged at 20000 rpm for 15 minutes. The pellet was resuspended (homogenised) in 10 ml Buffer 2 and re-centrifuged. This step was repeated once more. The resulting pellet was resuspended in Buffer 2, and the protein concentration was determined. The membranes were stored at minus 80° C.
Buffer 1:20 mM Na-HEPES+10 mM EDTA, pH 7.4
Buffer 2:20 mM Na-HEPES+0.1 mM EDTA, pH 7.4
Test compounds, membranes, SPA-particles and [^125I]-GLP-1(7-36)NH2 were diluted in assay buffer. 50 ul (micro liter) HSA (“high albumin” experiment containing 2% HSA), or buffer (“low albumin” experiment containing 0.001% HSA) was added to Optiplate, and 25 ul of test compounds were added. 5-10 ug membrane protein/sample was added (50 ul) corresponding to 0.1-0.2 mg protein/ml (to be preferably optimised for each membrane preparation). SPA-particles (Wheatgerm agglutinin SPA beads, Perkin Elmer, # RPNQ0001) were added in an amount of 0.5 mg/well (50 ul). The incubation was started with [^125I]-GLP-1]-(7-36)NH2 (final concentration 0.06 nM corresponding to 49.880 DPM, 25 ul). The plates were sealed with PlateSealer and incubated for 120 minutes at 30° C. while shaking. The plates were centrifuged (1500 rpm, 10 min) and counted in Topcounter.

The mark [3] stands for this setting: In vitro potency (CRE luciferase) EC50 (0% HSA), 0% HSA.
[4] abbreviates: Receptor binding affinity IC50 (high HSA), 2.0% HSA (high albumin).
The mark [5] stands for this setting: Receptor binding affinity IC50 (low HSA), 0.001% HSA (low albumin).
[6] abbreviates: In vitro potency (CRE luciferase) EC50 (1% HSA), 1% HSA.

SMILES strings stand for the structures. pEC50, pIC50: −log10 of the molar value.

T1 sequence (P43220 24-463): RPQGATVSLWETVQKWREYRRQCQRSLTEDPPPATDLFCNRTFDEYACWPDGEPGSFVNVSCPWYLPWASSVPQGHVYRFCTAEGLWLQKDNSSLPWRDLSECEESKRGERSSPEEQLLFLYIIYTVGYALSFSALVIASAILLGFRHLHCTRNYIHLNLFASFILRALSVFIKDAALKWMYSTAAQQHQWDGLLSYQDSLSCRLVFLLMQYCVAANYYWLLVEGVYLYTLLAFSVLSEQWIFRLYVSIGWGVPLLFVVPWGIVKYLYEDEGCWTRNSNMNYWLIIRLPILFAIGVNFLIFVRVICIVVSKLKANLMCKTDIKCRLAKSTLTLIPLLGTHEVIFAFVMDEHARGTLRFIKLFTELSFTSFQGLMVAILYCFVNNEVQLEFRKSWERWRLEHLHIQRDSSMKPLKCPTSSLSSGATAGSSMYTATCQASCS

As to `CC[C@H](C)[C@H](NC(=O)[C@H](Cc1ccccc1)NC(=O)[C@H](CCC(=O)O)NC(=O)[C@H](CCCCNC(=O)[C@@H](N)CCCCNC(=O)[C@@H](N)CCCCNC(=O)[C@H](CO)NC(=O)[C@H](CO)NC(=O)CC[C@H](NC(=O)CCCCCCCCCCOc1ccc(C(=O)O)cc1)C(=O)O)NC(=O)[C@H](C)NC(=O)[C@H](C)NC(=O)[C@H](CCC(N)=O)NC(=O)CNC(=O)[C@H](CCC(=O)O)NC(=O)[C@H](CC(C)C)NC(=O)[C@H](Cc1ccc(O)cc1)NC(=O)[C@H](CO)NC(=O)[C@H](CO)NC(=O)[C@@H](NC(=O)[C@H](CC(=O)O)NC(=O)[C@H](CO)NC(=O)[C@@H](NC(=O)[C@H](Cc1ccccc1)NC(=O)[C@@H](NC(=O)CNC(=O)[C@H](CCC(=O)O)NC(=O)C(C)(C)NC(=O)[C@@H](N)Cc1c[nH]cn1)[C@@H](C)O)[C@@H](C)O)C(C)C)C(=O)N[C@@H](C)C(=O)N[C@@H](Cc1c[nH]c2ccccc12)C(=O)N[C@@H](CC(C)C)C(=O)N[C@H](C(=O)N[C@@H](CCCNC(=N)N)C(=O)NCC(=O)N[C@@H](CCCNC(=N)N)C(=O)N[C@@H](CCCCNC(=O)[C@@H](N)CCCCNC(=O)[C@@H](N)CCCCNC(=O)[C@H](CO)NC(=O)[C@H](CO)NC(=O)CC[C@H](NC(=O)CCCCCCCCCCOc1ccc(C(=O)O)cc1)C(=O)O)C(=O)O)C(C)C` [Example 35], the pEC50 at human GLP-1 receptor [1] (setting [3]) is 11.26. Moreover, the pIC50 is 7.44 on human GLP-1 receptor [2] (setting [4]) and 10.10 on human GLP-1 receptor [2] (setting [5]).
Regarding `CC[C@H](C)[C@H](NC(=O)[C@H](Cc1ccccc1)NC(=O)[C@H](CCC(=O)O)NC(=O)[C@H](CCCCNC(=O)[C@H](CCCCNC(=O)[C@H](CCCCNC(=O)CC[C@H](NC(=O)CCCCCCCCCCOc1ccc(C(=O)O)cc1)C(=O)O)N(C)C)N(C)C)NC(=O)[C@H](C)NC(=O)[C@H](C)NC(=O)[C@H](CCC(N)=O)NC(=O)CNC(=O)[C@H](CCC(=O)O)NC(=O)[C@H](CC(C)C)NC(=O)[C@H](Cc1ccc(O)cc1)NC(=O)[C@H](CO)NC(=O)[C@H](CO)NC(=O)[C@@H](NC(=O)[C@H](CC(=O)O)NC(=O)[C@H](CO)NC(=O)[C@@H](NC(=O)[C@H](Cc1ccccc1)NC(=O)[C@@H](NC(=O)CNC(=O)[C@H](CCC(=O)O)NC(=O)C(C)(C)NC(=O)[C@@H](N)Cc1c[nH]cn1)[C@@H](C)O)[C@@H](C)O)C(C)C)C(=O)N[C@@H](C)C(=O)N[C@@H](Cc1c[nH]c2ccccc12)C(=O)N[C@@H](CC(C)C)C(=O)N[C@H](C(=O)N[C@@H](CCCNC(=N)N)C(=O)NCC(=O)N[C@@H](CCCNC(=N)N)C(=O)N[C@@H](CCCCNC(=O)[C@H](CCCCNC(=O)[C@H](CCCCNC(=O)CC[C@H](NC(=O)CCCCCCCCCCOc1ccc(C(=O)O)cc1)C(=O)O)N(C)C)N(C)C)C(=O)O)C(C)C` [Example 37, N^ε26-[(2S)-6-[[(2S)-6-[[(4S)-4-carboxy-4-[11-(4-carboxyphenoxy)undecanoylamino]butanoyl]amino]-2-(dimethylamino)hexanoyl]amino]-2-(dimethylamino)hexanoyl], N^ε37-[(2S)-6-[[(2S)-6-[[(4S)-4-carboxy-4-[11-(4-carboxyphenoxy)undecanoylamino]butanoyl]amino]-2-(dimethylamino)hexanoyl]amino]-2-(dimethylamino)hexanoyl]-[Aib^8,Arg^34,Lys^37]-GLP-1-(7-37)-peptide], at human GLP-1 receptor [1] (setting [6]), the pEC50 is 10.03. This compound had a negative logarithm of the IC50 (pIC50) at human GLP-1 receptor [2] (setting [4]) of 7.62.
Turning to `CC[C@H](C)[C@H](NC(=O)[C@H](Cc1ccccc1)NC(=O)[C@H](CCC(=O)O)NC(=O)[C@H](CCCCNC(=O)[C@@H](N)CCCCNC(=O)[C@@H](N)CCCCNC(=O)CC[C@H](NC(=O)CC[C@H](NC(=O)CCCCCCCCCCOc1ccc(C(=O)O)cc1)C(=O)O)C(=O)O)NC(=O)[C@H](C)NC(=O)[C@H](C)NC(=O)[C@H](CCC(N)=O)NC(=O)CNC(=O)[C@H](CCC(=O)O)NC(=O)[C@H](CC(C)C)NC(=O)[C@H](Cc1ccc(O)cc1)NC(=O)[C@H](CO)NC(=O)[C@H](CO)NC(=O)[C@@H](NC(=O)[C@H](CC(=O)O)NC(=O)[C@H](CO)NC(=O)[C@@H](NC(=O)[C@H](Cc1ccccc1)NC(=O)[C@@H](NC(=O)CNC(=O)[C@H](CCC(=O)O)NC(=O)C(C)(C)NC(=O)[C@@H](N)Cc1c[nH]cn1)[C@@H](C)O)[C@@H](C)O)C(C)C)C(=O)N[C@@H](C)C(=O)N[C@@H](Cc1c[nH]c2ccccc12)C(=O)N[C@@H](CC(C)C)C(=O)N[C@H](C(=O)N[C@@H](CCCNC(=N)N)C(=O)NCC(=O)N[C@@H](CCCNC(=N)N)C(=O)N[C@@H](CCCCNC(=O)[C@@H](N)CCCCNC(=O)[C@@H](N)CCCCNC(=O)CC[C@H](NC(=O)CC[C@H](NC(=O)CCCCCCCCCCOc1ccc(C(=O)O)cc1)C(=O)O)C(=O)O)C(=O)O)C(C)C` [Example 38, N^ε26-[(2S)-2-amino-6-[[(2S)-2-amino-6-[[(4S)-4-carboxy-4-[[(4S)-4-carboxy-4-[11-(4-carboxyphenoxy)undecanoylamino]butanoyl]amino]butanoyl]amino]hexanoyl]amino]hexanoyl], N^ε37-[(2S)-2-amino-6-[[(2S)-2-amino-6-[[(4S)-4-carboxy-4-[[(4S)-4-carboxy-4-[11-(4-carboxyphenoxy)undecanoylamino]butanoyl]amino]butanoyl]amino]hexanoyl]amino]hexanoyl]-[Aib^8,Arg^34,Lys^37]-GLP-1-(7-37)-peptide], the pEC50 on human GLP-1 receptor [1] (setting [3]) was 11.12; at human GLP-1 receptor [1] (setting [6]) it was 9.72. The pIC50 on human GLP-1 receptor [2] (setting [4]) was 7.28.
`CC[C@H](C)[C@H](NC(=O)[C@H](Cc1ccccc1)NC(=O)[C@H](CCC(=O)O)NC(=O)[C@H](CCCCNC(=O)[C@@H](N)CCCCNC(=O)CC[C@H](NC(=O)CC[C@H](NC(=O)CC[C@H](NC(=O)CCCCCCCCCCOc1ccc(C(=O)O)cc1)C(=O)O)C(=O)O)C(=O)O)NC(=O)[C@H](C)NC(=O)[C@H](C)NC(=O)[C@H](CCC(N)=O)NC(=O)CNC(=O)[C@H](CCC(=O)O)NC(=O)[C@H](CC(C)C)NC(=O)[C@H](Cc1ccc(O)cc1)NC(=O)[C@H](CO)NC(=O)[C@H](CO)NC(=O)[C@@H](NC(=O)[C@H](CC(=O)O)NC(=O)[C@H](CO)NC(=O)[C@@H](NC(=O)[C@H](Cc1ccccc1)NC(=O)[C@@H](NC(=O)CNC(=O)[C@H](CCC(=O)O)NC(=O)C(C)(C)NC(=O)[C@@H](N)Cc1c[nH]cn1)[C@@H](C)O)[C@@H](C)O)C(C)C)C(=O)N[C@@H](C)C(=O)N[C@@H](Cc1c[nH]c2ccccc12)C(=O)N[C@@H](CC(C)C)C(=O)N[C@H](C(=O)N[C@@H](CCCNC(=N)N)C(=O)NCC(=O)N[C@@H](CCCNC(=N)N)C(=O)N[C@@H](CCCCNC(=O)[C@@H](N)CCCCNC(=O)CC[C@H](NC(=O)CC[C@H](NC(=O)CC[C@H](NC(=O)CCCCCCCCCCOc1ccc(C(=O)O)cc1)C(=O)O)C(=O)O)C(=O)O)C(=O)O)C(C)C` [Example 39, N^ε26-[(2S)-2-amino-6-[[(4S)-4-carboxy-4-[[(4S)-4-carboxy-4-[[(4S)-4-carboxy-4-[11-(4-carboxyphenoxy)undecanoylamino]butanoyl]amino]butanoyl]amino]butanoyl]amino]hexanoyl], N^ε37-[(2S)-2-amino-6-[[(4S)-4-carboxy-4-[[(4S)-4-carboxy-4-[[(4S)-4-carboxy-4-[11-(4-carboxyphenoxy)undecanoylamino]butanoyl]amino]butanoyl]amino]butanoyl]amino]hexanoyl]-[Aib^8,Arg^34,Lys^37]-GLP-1-(7-37)-peptide]: the pEC50 at human GLP-1 receptor [1] (setting [3]) was 11.43; on human GLP-1 receptor [1] (setting [6]) it was 9.85. For the same compound, the “EC50/pM (ratio 1% HSA/0% HSA)” value on human GLP-1 receptor [1] (ratio of EC50 at 1% HSA to EC50 at 0% HSA) was found to be 38. Further, the pIC50 is 6.88 at human GLP-1 receptor [2] (setting [4]) and 10.22 on human GLP-1 receptor [2] (setting [5]).

Usually pEC50 stands for the EC50 on a negative log10 scale, so that one unit is a factor of ten. For orientation: pIC50 means the IC50 on a negative log10 scale, so that one unit is a factor of ten.
